Key:
ZR-75-1 Tam2 [1] = test: relative IC50 (midpoint of fitted logistic curve, plateau may be below 50% inhibition; CellTiter-Glo viability); higher = less potent; conditions: 4-OH-tamoxifen in medium 1 µM; 72 h
In short: (§1)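 Breast cancer cell lines and their resistant derivatives were seeded into 384-well plates containing library drugs at five concentrations across a 10 000-fold range, with resistant lines kept in medium with 1 μM of the selecting drug. After 72 h at 37 °C, CellTiter-Glo viability was read on a PHERAstar and normalised to vehicle-only and positive controls. Logistic dose–response fits in the Breeze pipeline gave drug sensitivity score, relative IC50 (curve midpoint) and top-dose inhibition.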

T-47D Tam2 [2] = test: as above; conditions: 4-OH-tamoxifen in medium 1 µM; 72 h
In short: as §1

BT-474 [3] = test: as above; conditions: 72 h
In short: as §1

ZR-75-1 [4] = test: as above; conditions: 72 h
In short: as §1

ZR-75-1 Tam1 [5] = test: as above; conditions: 4-OH-tamoxifen in medium 1 µM; 72 h
In short: as §1

MCF-7 [6] = test: as above; conditions: 72 h
In short: as §1

BT-474 Tam1 [7] = test: as above; conditions: 4-OH-tamoxifen in medium 1 µM; 72 h
In short: as §1

BT-474 Tam2 [8] = test: as above; conditions: 4-OH-tamoxifen in medium 1 µM; 72 h
In short: as §1

T-47D Tam1 [9] = test: as above; conditions: 4-OH-tamoxifen in medium 1 µM; 72 h
In short: as §1

MCF-7 Tam1 [10] = test: as above; conditions: 4-OH-tamoxifen in medium 1 µM; 72 h
In short: as §1

T-47D [11] = test: as above; conditions: 72 h
In short: as §1

ZR-75-1 Tam2 [12] = test: drug sensitivity score (DSS) (DSS (dimensionless)); higher = more sensitive; extreme values may be limits of the assay; conditions: 4-OH-tamoxifen in medium 1 µM; 72 h
In short: as §1

T-47D Tam2 [13] = test: as above; conditions: 4-OH-tamoxifen in medium 1 µM; 72 h
In short: as §1

BT-474 [14] = test: as above; conditions: 72 h
In short: as §1

ZR-75-1 [15] = test: as above; conditions: 72 h
In short: as §1

ZR-75-1 Tam1 [16] = test: as above; conditions: 4-OH-tamoxifen in medium 1 µM; 72 h
In short: as §1

MCF-7 [17] = test: as above; conditions: 72 h
In short: as §1

BT-474 Tam1 [18] = test: as above; conditions: 4-OH-tamoxifen in medium 1 µM; 72 h
In short: as §1

BT-474 Tam2 [19] = test: as above; conditions: 4-OH-tamoxifen in medium 1 µM; 72 h
In short: as §1

T-47D Tam1 [20] = test: as above; conditions: 4-OH-tamoxifen in medium 1 µM; 72 h
In short: as §1

MCF-7 Tam1 [21] = test: as above; conditions: 4-OH-tamoxifen in medium 1 µM; 72 h
In short: as §1

T-47D [22] = test: as above; conditions: 72 h
In short: as §1

## CC(C)n1nc(-c2ccc3oc(N)nc3c2)c2c(N)ncnc21 [INK128]
ZR-75-1 Tam2 [1]
  relative IC50: 6.49 nM
T-47D Tam2 [2]
  relative IC50: 7.49 nM
BT-474 [3]; 4-OH-tamoxifen in medium 0 µM
  relative IC50: 27.5 nM
BT-474 [3]; 4-OH-tamoxifen in medium 1 µM
  relative IC50: 47.1 nM
ZR-75-1 [4]; 4-OH-tamoxifen in medium 0 µM
  relative IC50: 6.13 nM
ZR-75-1 [4]; 4-OH-tamoxifen in medium 1 µM
  relative IC50: 6.56 nM
ZR-75-1 Tam1 [5]
  relative IC50: 4.81 nM
MCF-7 [6]; 4-OH-tamoxifen in medium 0 µM
  relative IC50: 7.36 nM
MCF-7 [6]; 4-OH-tamoxifen in medium 1 µM
  relative IC50: 7.62 nM
BT-474 Tam1 [7]
  relative IC50: 20.9 nM
BT-474 Tam2 [8]
  relative IC50: 30.2 nM
T-47D Tam1 [9]
  relative IC50: 2.91 nM
MCF-7 Tam1 [10]
  relative IC50: 11.4 nM
T-47D [11]; 4-OH-tamoxifen in medium 0 µM
  relative IC50: 11.6 nM
T-47D [11]; 4-OH-tamoxifen in medium 1 µM
  relative IC50: 11.9 nM
ZR-75-1 Tam2 [12]
  drug sensitivity score: 17.5
T-47D Tam2 [13]
  drug sensitivity score: 8.98
BT-474 [14]; 4-OH-tamoxifen in medium 0 µM
  drug sensitivity score: 5.72
BT-474 [14]; 4-OH-tamoxifen in medium 1 µM
  drug sensitivity score: 9.54
ZR-75-1 [15]; 4-OH-tamoxifen in medium 0 µM
  drug sensitivity score: 16.1
ZR-75-1 [15]; 4-OH-tamoxifen in medium 1 µM
  drug sensitivity score: 13.6
ZR-75-1 Tam1 [16]
  drug sensitivity score: 15.1
MCF-7 [17]; 4-OH-tamoxifen in medium 0 µM
  drug sensitivity score: 18.9
MCF-7 [17]; 4-OH-tamoxifen in medium 1 µM
  drug sensitivity score: 13.6
BT-474 Tam1 [18]
  drug sensitivity score: 13.2
BT-474 Tam2 [19]
  drug sensitivity score: 7.32
T-47D Tam1 [20]
  drug sensitivity score: 16.9
MCF-7 Tam1 [21]
  drug sensitivity score: 7.07
T-47D [22]; 4-OH-tamoxifen in medium 0 µM
  drug sensitivity score: 15.4
T-47D [22]; 4-OH-tamoxifen in medium 1 µM
  drug sensitivity score: 8.51

## CS(=O)(=O)N1CCN(Cc2cc3nc(-c4cccc5[nH]ncc45)nc(N4CCOCC4)c3s2)CC1 [Pictilisib (GDC-0941)]
ZR-75-1 Tam2 [1]
  relative IC50: 415 nM
T-47D Tam2 [2]
  relative IC50: 472 nM
BT-474 [3]; 4-OH-tamoxifen in medium 0 µM
  relative IC50: 359 nM
BT-474 [3]; 4-OH-tamoxifen in medium 1 µM
  relative IC50: 283 nM
ZR-75-1 [4]; 4-OH-tamoxifen in medium 0 µM
  relative IC50: 208 nM
ZR-75-1 [4]; 4-OH-tamoxifen in medium 1 µM
  relative IC50: 453 nM
ZR-75-1 Tam1 [5]
  relative IC50: 514 nM
MCF-7 [6]; 4-OH-tamoxifen in medium 0 µM
  relative IC50: 201 nM
MCF-7 [6]; 4-OH-tamoxifen in medium 1 µM
  relative IC50: 419 nM
BT-474 Tam1 [7]
  relative IC50: 202 nM
BT-474 Tam2 [8]
  relative IC50: 182 nM
T-47D Tam1 [9]
  relative IC50: 148 nM
MCF-7 Tam1 [10]
  relative IC50: 582 nM
T-47D [11]; 4-OH-tamoxifen in medium 0 µM
  relative IC50: 713 nM
T-47D [11]; 4-OH-tamoxifen in medium 1 µM
  relative IC50: 884 nM
ZR-75-1 Tam2 [12]
  drug sensitivity score: 12.1
T-47D Tam2 [13]
  drug sensitivity score: 9.95
BT-474 [14]; 4-OH-tamoxifen in medium 0 µM
  drug sensitivity score: 10.2
BT-474 [14]; 4-OH-tamoxifen in medium 1 µM
  drug sensitivity score: 16.4
ZR-75-1 [15]; 4-OH-tamoxifen in medium 0 µM
  drug sensitivity score: 12.7
ZR-75-1 [15]; 4-OH-tamoxifen in medium 1 µM
  drug sensitivity score: 9.23
ZR-75-1 Tam1 [16]
  drug sensitivity score: 11.3
MCF-7 [17]; 4-OH-tamoxifen in medium 0 µM
  drug sensitivity score: 15.4
MCF-7 [17]; 4-OH-tamoxifen in medium 1 µM
  drug sensitivity score: 12.8
BT-474 Tam1 [18]
  drug sensitivity score: 17.4
BT-474 Tam2 [19]
  drug sensitivity score: 17.2
T-47D Tam1 [20]
  drug sensitivity score: 14.7
MCF-7 Tam1 [21]
  drug sensitivity score: 8.69
T-47D [22]; 4-OH-tamoxifen in medium 0 µM
  drug sensitivity score: 9.41
T-47D [22]; 4-OH-tamoxifen in medium 1 µM
  drug sensitivity score: 9.59

## CN[C@@H]1C[C@H]2O[C@@](C)([C@@H]1OC)n1c3ccccc3c3c4c(c5c6ccccc6n2c5c31)C(=O)N[C@H]4O [UCN-01]
ZR-75-1 Tam2 [1]
  relative IC50: 686 nM
T-47D Tam2 [2]
  relative IC50: 855 nM
BT-474 [3]; 4-OH-tamoxifen in medium 0 µM
  relative IC50: 467 nM
BT-474 [3]; 4-OH-tamoxifen in medium 1 µM
  relative IC50: 525 nM
ZR-75-1 [4]; 4-OH-tamoxifen in medium 0 µM
  relative IC50: 437 nM
ZR-75-1 [4]; 4-OH-tamoxifen in medium 1 µM
  relative IC50: 1010 nM
ZR-75-1 Tam1 [5]
  relative IC50: 615 nM
MCF-7 [6]; 4-OH-tamoxifen in medium 0 µM
  relative IC50: 198 nM
MCF-7 [6]; 4-OH-tamoxifen in medium 1 µM
  relative IC50: 355 nM
BT-474 Tam1 [7]
  relative IC50: 588 nM
BT-474 Tam2 [8]
  relative IC50: 409 nM
T-47D Tam1 [9]
  relative IC50: 736 nM
MCF-7 Tam1 [10]
  relative IC50: 486 nM
T-47D [11]; 4-OH-tamoxifen in medium 0 µM
  relative IC50: 598 nM
T-47D [11]; 4-OH-tamoxifen in medium 1 µM
  relative IC50: 864 nM
ZR-75-1 Tam2 [12]
  drug sensitivity score: 9.41
T-47D Tam2 [13]
  drug sensitivity score: 8.25
BT-474 [14]; 4-OH-tamoxifen in medium 0 µM
  drug sensitivity score: 10.8
BT-474 [14]; 4-OH-tamoxifen in medium 1 µM
  drug sensitivity score: 13.3
ZR-75-1 [15]; 4-OH-tamoxifen in medium 0 µM
  drug sensitivity score: 9.37
ZR-75-1 [15]; 4-OH-tamoxifen in medium 1 µM
  drug sensitivity score: 6.62
ZR-75-1 Tam1 [16]
  drug sensitivity score: 8.97
MCF-7 [17]; 4-OH-tamoxifen in medium 0 µM
  drug sensitivity score: 17.1
MCF-7 [17]; 4-OH-tamoxifen in medium 1 µM
  drug sensitivity score: 15.8
BT-474 Tam1 [18]
  drug sensitivity score: 13.4
BT-474 Tam2 [19]
  drug sensitivity score: 15.6
T-47D Tam1 [20]
  drug sensitivity score: 10.2
MCF-7 Tam1 [21]
  drug sensitivity score: 14.3
T-47D [22]; 4-OH-tamoxifen in medium 0 µM
  drug sensitivity score: 9.64
T-47D [22]; 4-OH-tamoxifen in medium 1 µM
  drug sensitivity score: 8.4

Reference: the supplement of paper PMC4932681
